Drawing on patent US5440036A, “1,4-benzoxazine derivatives” (SS Pharmaceutical Co., Ltd., priority 1992, dated 1995), this text covers IC50 for nine compounds.

The experiment has as its system endothelium-ablated preparations of the rat aorta. The experiment in a line: Vasorelaxing effect to endothelium-ablated preparations of the rat aorta. As to conditions: 10 min; endothelium-ablated rat aorta rings, contraction by 30 mM K^+, 37° C., sample compound cumulatively applied at intervals of 10 minutes; read-out: IC50 (50% inhibition concentration). How it is done: Vasorelaxing effect to endothelium-ablated preparations of the rat aorta:
The aorta of each rat (body weight: 200 to 330 g) was isolated and cut at a width of about 3 mm. Endothelium was then ablated off to form a ring preparation. That preparation was incubated at 37° C., and then suspended under a load of 2 g in 10 ml of the Krebs-Henseleit solution which had been aerated with a mixed gas (95% O2, 5% CO2). Tension was isometrically recorded via an FD transducer ("T2-30-240", trade name; manufactured by Orientec) and a dynamic strain gauge ("6M81", trade name; manufactured by NEC-San-ei) Upon an elapsed time of 60 minutes or longer subsequent to the suspension, that is, after the preparation had become stable, 10^-7 M noradrenaline (Nor) was applied several times. Under contraction by 10^-7 M Nor, 10^-7 acetylcholine was applied. Preparations which were not relaxed by the application of 10^-7 acetylcholine were used in the experiment. 30 mM K^+ were applied. From the time point that its contraction had became uniform, a sample compound was cumulatively applied at intervals of 10 minutes so that the 50% inhibition concentration (IC50) was calculated.

`CCC(=O)NN1CC(C)(C)Oc2ccc(S(=O)(=O)C(F)(F)F)cc21` [compound 57]: the IC50 worked out at 0.0152 µM.

In the case of `CCC1(CC)CN(NC(C)=O)c2cc(C(F)(F)F)ccc2O1` [compound 24], the IC50 is 0.0379 µM.

Consider `CC1(C)CN(NC(=O)c2cccnc2)c2cc(S(=O)(=O)C(F)(F)F)ccc2O1` [compound 58], for which the IC50 was 0.0143 µM.

On to `CC1(C)CN(NC(=O)c2cccnc2)c2cc(C(F)(F)F)ccc2O1` [compound 20], for which the IC50 was determined as 0.0514 µM.

In the case of `CCC(=O)NN1CC(C)(C)Oc2ccc([N+](=O)[O-])cc21` [Compound No. 8, 2,2-Dimethyl-6-nitro-4-propanoylamino-1,4-benzoxazine], the IC50 worked out at 0.0126 µM.

As for `CC(=O)NN1CC(C)(C)Oc2ccc(S(=O)(=O)C(F)(F)C(F)(F)F)cc21` [compound 27], the IC50 worked out at 0.0336 µM.

Regarding `CC1(C)Oc2ccc(C#N)cc2[C@@H](N2CCCC2=O)[C@@H]1O` (racemic) [Cromakalim, (±)-trans-6-cyano-2,2-dimethyl-4-(2-oxopyrrolidin-1-yl)-3,4-dihydro-2H-1-benzopyran-3-ol, reference compound], the IC50 was 0.134 µM.

In the case of `CC(=O)NN1CC(C)(C)Oc2ccc(S(=O)(=O)C(F)(F)F)cc21` [compound 56], the IC50 is 0.0096 µM.

`C=CC(=O)NN1CC(C)(C)Oc2ccc([N+](=O)[O-])cc21` [compound 11]: the IC50 was 0.0288 µM.
